In patent publication US20240158446A1, “CYCLIC COMPOUND HAVING SELECTIVE INHIBITORY ACTION ON KRAS OVER HRAS AND NRAS” (CHUGAI SEIYAKU KABUSHIKI KAISHA, priority 2021, published 2024):
Read-outs that look alike come from different tables or passages of the source. Where a SMILES comes first, the peptide text is derived from it. Bridges are numbered along the chain shown (N, C = ends). [ ]: non-standard residue; d: D form. The star is where a group is joined. hPhe(3,5-F2-4-CF3) = N[C@@H](CCc1cc(F)c(C(F)(F)F)c(F)c1)C(=O)O; NPrPhe(4-CF3) = CCCN[C@@H](Cc1ccc(C(F)(F)F)cc1)C(=O)O; NMeGly(cPent) = CN[C@H](C(=O)O)C1CCCC1; NMeD = CN[C@@H](CC(=O)O)C(=O)O; NMeL = CN[C@@H](CC(C)C)C(=O)O; αMeS = C[C@](N)(CO)C(=O)O; Morpholide = C1CN(*)CCO1; Sar = CNCC(=O)O

Legend:
[1] = test system: human lung cancer strain NCI-H441;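 further: cell proliferation inhibition after four days measured by CellTiter-Glo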
[2] = target: GDP-bound HRAS wild-type protein (Homo sapiens, UniProt P01112); test: Binding to HRAS by surface plasmon resonance (SPR), Single Cycle Kinetics
[3] = target: GDP-bound NRAS wild-type protein (Homo sapiens, UniProt P01111); test: Binding to NRAS by surface plasmon resonance (SPR), Single Cycle Kinetics
[4] = target: GDP-bound KRAS wild-type protein (Homo sapiens, UniProt P01116); test: Binding to KRAS by surface plasmon resonance (SPR), Single Cycle Kinetics
[5] = SPR Single Cycle Kinetics, GDP-bound KRAS wild-type protein, 1:1 binding model, read-out: KRAS KD
[6] = read-out: NCI-H441 cell proliferation inhibitory activity, 50% proliferation inhibitory concentration (IC50 value), NCI-H441, four days, CellTiter-Glo
[7] = SPR, GDP-bound HRAS wild-type protein vs GDP-bound KRAS wild-type protein
[8] = SPR, GDP-bound NRAS wild-type protein vs GDP-bound KRAS wild-type protein
[9] = SPR, Single Cycle Kinetics, GDP-bound KRAS wild-type protein, read-out: KRAS KD
[10] = SPR, GDP-bound HRAS wild-type protein vs GDP-bound KRAS wild-type protein, KD ratio class
[11] = SPR, GDP-bound NRAS wild-type protein vs GDP-bound KRAS wild-type protein, KD ratio class
[12] = SPR, Single Cycle Kinetics, 1:1 binding model, GDP-bound KRAS wild-type protein, read-out: KRAS KD

Sequence of GDP-bound HRAS wild-type protein (P01112 whole entry): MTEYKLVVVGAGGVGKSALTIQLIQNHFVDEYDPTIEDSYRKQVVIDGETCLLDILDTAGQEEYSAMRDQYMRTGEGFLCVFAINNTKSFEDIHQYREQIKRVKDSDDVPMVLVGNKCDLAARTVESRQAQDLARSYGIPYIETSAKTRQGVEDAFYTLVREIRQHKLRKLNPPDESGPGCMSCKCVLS
Sequence of GDP-bound NRAS wild-type protein (P01111 whole entry): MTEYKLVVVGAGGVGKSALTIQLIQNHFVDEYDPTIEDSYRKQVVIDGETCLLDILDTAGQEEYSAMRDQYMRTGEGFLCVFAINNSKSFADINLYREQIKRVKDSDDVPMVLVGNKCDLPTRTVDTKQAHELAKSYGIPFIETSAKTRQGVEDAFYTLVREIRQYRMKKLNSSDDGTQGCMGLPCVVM
Sequence of GDP-bound KRAS wild-type protein (P01116 whole entry): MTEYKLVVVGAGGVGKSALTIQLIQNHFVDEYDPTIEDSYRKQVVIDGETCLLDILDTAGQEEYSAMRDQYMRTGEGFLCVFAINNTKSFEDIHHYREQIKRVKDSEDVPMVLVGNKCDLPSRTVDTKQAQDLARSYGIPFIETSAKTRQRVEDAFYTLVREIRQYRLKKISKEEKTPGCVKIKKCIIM

Structure (SMILES): CCC[C@H]1C(=O)N[C@@H]([C@@H](C)CC)C(=O)N(C)CC(=O)N(C)[C@H]2C/C=C\CCN(C2=O)[C@@H](Cc2ccc(C(F)(F)F)cc2)C(=O)N(C)CC(=O)N[C@@H](CCc2ccc(Cl)c(Cl)c2)C(=O)N2C[C@H](OCC)C[C@H]2C(=O)NC2(CC(C)(C)C2)C(=O)N(C)[C@@H](CC(C)(C)C)C(=O)N(C)[C@H](C(=O)N(C)C)CC(=O)N1C [PP2738]
- IC50 [1]: 8.5 nM
- HRAS/KRAS (ratio of KD value with respect to GDP-bound HRAS wild-type protein to KD value with respect to KRAS) ([2]; SPR KD ratio HRAS/KRAS, class symbols): A (a compound having 10 or more and less than 20 is denoted as A)
- NRAS/KRAS (ratio of KD value with respect to GDP-bound NRAS wild-type protein to KD value with respect to KRAS) ([3]; SPR KD ratio NRAS/KRAS, class symbols): AA (a compound having 20 or more is denoted as AA)
- Kd [4, 5]: 0.17 nM

Structure (SMILES): CC[C@H](C)[C@@H]1NC(=O)[C@@H]2CCCCCc3ccc(cc3)C[C@@H](C(=O)N(C)CC(=O)N[C@@H](CCc3ccc(C(F)(F)F)c(OC)c3)C(=O)N3C[C@H](OC(C)C)C[C@H]3C(=O)NC3(CC(C)(C)C3)C(=O)N(C)[C@@H](C3CCCC3)C(=O)N(C)[C@H](C(=O)N(C)C)CC(=O)N2C)N2CC/C=C\C[C@@H](C2=O)N(C)C(=O)CN(C)C1=O [PP3072]
- IC50 [1, 6]: 2.6 nM
- HRAS/KRAS (ratio of KD value for HRAS to KD value for KRAS) [2, 7]: B (a compound having 3 or more and less than 10 is denoted as B)
- ratio of the KD value with respect to GDP-bound HRAS wild-type protein to the KD value with respect to KRAS ([2]; SPR): B (a compound having 3 or more and less than 10 is denoted as B)
- NRAS/KRAS (ratio of KD value for NRAS to KD value for KRAS) [3, 8]: A (a compound having 10 or more and less than 20 is denoted as A)
- ratio of the KD value with respect to GDP-bound NRAS wild-type protein to the KD value with respect to KRAS ([3]; SPR): A (a compound having 10 or more and less than 20 is denoted as A)
- Kd [4, 9]: 0.048 nM

Structure (SMILES): CCC[C@H]1C(=O)N[C@@H]([C@@H](C)CC)C(=O)N(C)CC(=O)N(C)[C@H]2C/C=C\CCN(C2=O)[C@@H](Cc2ccc(C(F)(F)F)cc2)C(=O)N(C)CC(=O)N[C@@H](CCc2cc(F)c(C(F)(F)F)c(F)c2)C(=O)N2C[C@H](OCC)C[C@H]2C(=O)NC2(CCC2)C(=O)N(C)[C@@H](C2CCCC2)C(=O)N(C)[C@H](C(=O)N2CCCC2)CC(=O)N1C [PP1299, (2S,8S,12R,14S,20S,23S,27S,30S,36S,38Z)-20-cyclopentyl-8-[2-[3,5-difluoro-4-(trifluoromethyl)phenyl]ethyl]-12-ethoxy-4,19,22,26,32,35-hexamethyl-30-[(1S)-1-methylpropyl]-27-propyl-23-(pyrrolidine-1-carbonyl)-2-[[4-(trifluoromethyl)phenyl]methyl]spiro[1,4,7,10,16,19,22,26,29,32,35-undecazatricyclo[34.5.1.0^10,14]dotetracont-38-ene-17,1′-cyclobutane]-3,6,9,15,18,21,25,28,31,34,42-undecone]
- IC50 [1]: 11 nM
- HRAS/KRAS (ratio of KD value for HRAS to KD value for KRAS) [2, 10]: A (a compound having 10 or more and less than 20 is denoted as A)
- NRAS/KRAS (ratio of KD value for NRAS to KD value for KRAS) [3, 11]: A (a compound having 10 or more and less than 20 is denoted as A)
- Kd [4, 12]: 0.14 nM

Structure (SMILES): CCC[C@H]1C(=O)N[C@@H]([C@@H](C)CC)C(=O)N2CCC[C@H]2C(=O)N(C)[C@H]2C/C=C\CCN(C2=O)[C@@H](Cc2ccc(C)cc2)C(=O)N(C)CC(=O)N[C@@H](CCc2ccc(C(F)(F)F)c(OC)c2)C(=O)N2C[C@H](OCC)C[C@H]2C(=O)N(C)C2(CCC2)C(=O)N(C)[C@@H](C2CCCC2)C(=O)N(C)[C@H](C(=O)N2CCCCC2)CC(=O)N1C [PP3100, (1S,4S,10S,13S,17S,20S,26S,28R,32S,38S,42Z)-20-cyclopentyl-28-ethoxy-32-[2-[3-methoxy-4-(trifluoromethyl)phenyl]ethyl]-2,14,18,21,24,36-hexamethyl-10-[(1S)-1-methylpropyl]-17-(piperidine-1-carbonyl)-13-propyl-38-(p-tolylmethyl)spiro[2,8,11,14,18,21,24,30,33,36,39-undecazatetracyclo[37.5.1.0^4,8.0^26,30]pentatetracont-42-ene-23,1′-cyclobutane]-3,9,12,15,19,22,25,31,34,37,45-undecone]
- IC50 [1, 6]: 15 nM
- HRAS/KRAS (ratio of KD value for HRAS to KD value for KRAS) [2, 7]: B (a compound having 3 or more and less than 10 is denoted as B)
- ratio of the KD value with respect to GDP-bound HRAS wild-type protein to the KD value with respect to KRAS ([2]; SPR): B (a compound having 3 or more and less than 10 is denoted as B)
- NRAS/KRAS (ratio of KD value for NRAS to KD value for KRAS) [3, 8]: A (a compound having 10 or more and less than 20 is denoted as A)
- ratio of the KD value with respect to GDP-bound NRAS wild-type protein to the KD value with respect to KRAS ([3]; SPR): A (a compound having 10 or more and less than 20 is denoted as A)
- Kd ([4]; SPR, Single Cycle Kinetics, 1:1 binding model, read-out: KD value with respect to GDP-bound KRAS wild-type protein): 0.29 nM
- Kd [4, 9]: 0.29 nM

Structure (SMILES): CCOC[C@H]1C(=O)N[C@@H]([C@@H](C)CC)C(=O)N(C)CC(=O)N(C)[C@H]2C/C=C\CCN(C2=O)[C@@H](CC2CCCCC2)C(=O)N(C)CC(=O)N[C@@H](CCc2ccc(C(F)(F)F)c(OC)c2)C(=O)N2C[C@H](OCC)C[C@H]2C(=O)NC2(CC(C)(C)C2)C(=O)N(C)[C@@H](C(CC)CC)C(=O)N(C)[C@H](C(=O)N(C)C)CC(=O)N1C [PP2470]
- IC50 [1]: 118 nM
- HRAS/KRAS (ratio of KD value for HRAS to KD value for KRAS) [2, 7]: A (a compound having 10 or more and less than 20 is denoted as A)
- NRAS/KRAS (ratio of KD value for NRAS to KD value for KRAS) [3, 8]: A (a compound having 10 or more and less than 20 is denoted as A)
- Kd [4, 9]: 1.8 nM

Structure (SMILES): CCO[C@@H]1C[C@H]2C(=O)NC3(CCC3)C(=O)N(C)[C@@H](C3CCCC3)C(=O)N(C)[C@H](C(=O)N3CCCC3)CC(=O)N(C)[C@@H](CC3CCC3)C(=O)N[C@@H]([C@@H](C)CC)C(=O)N(C)CC(=O)N(C)[C@H]3C/C=C\CCN(C3=O)[C@@H](Cc3ccc(C(F)(F)F)cc3)C(=O)N(C)CC(=O)N[C@@H](CCc3cc(F)c(C(F)(F)F)c(F)c3)C(=O)N2C1 [PP1423]
- IC50 [1]: 4.4 nM
- HRAS/KRAS (ratio of KD value for HRAS to KD value for KRAS) [2, 10]: A (a compound having 10 or more and less than 20 is denoted as A)
- NRAS/KRAS (ratio of KD value for NRAS to KD value for KRAS) [3, 11]: AA (a compound having 20 or more is denoted as AA)
- Kd [4, 12]: 0.14 nM

Structure (SMILES): CCCN1C(=O)CN(C)C(=O)CN(C)C(=O)[C@H]([C@@H](C)CC)NC(=O)[C@H](CC(C)C)N(C)C(=O)C[C@@H](C(=O)N2CCOCC2)N(C)C(=O)[C@H](C2CCCC2)N(C)C(=O)[C@](C)(COC)NC(=O)[C@@H]2CCCN2C(=O)[C@H](CCc2cc(F)c(C(F)(F)F)c(F)c2)NC(=O)CN(C)C(=O)[C@@H]1Cc1ccc(C(F)(F)F)cc1 [PP0762] ([NMeL]I[Sar][Sar][NPrPhe(4-CF3)][Sar][hPhe(3,5-F2-4-CF3)]P[αMeS](Me)[NMeGly(cPent)][NMeD]-Morpholide; lactam N-11)
- IC50 [1]: 30.1 nM
- HRAS/KRAS (ratio of KD value with respect to HRAS to KD value with respect to KRAS) [2, 7]: B (a compound having 3 or more and less than 10 is denoted as B)
- NRAS/KRAS (ratio of KD value with respect to NRAS to KD value with respect to KRAS) [3, 8]: B (a compound having 3 or more and less than 10 is denoted as B)
- Kd [4, 5]: 0.73 nM

Structure (SMILES): CCO[C@@H]1C[C@H]2C(=O)NC3(CCC3)C(=O)N(C)[C@@H](C3CCCC3)C(=O)N(C)[C@H](C(=O)N(C)C)CC(=O)N(C)[C@@H](CCOC)C(=O)N[C@@H]([C@@H](C)CC)C(=O)N(C)CC(=O)N(C)[C@H]3CCCCCN(C3=O)[C@@H](Cc3ccc(F)cc3)C(=O)N(C)CC(=O)N[C@@H](CCc3cc(F)c(C(F)(F)F)c(F)c3)C(=O)N2C1 [PP1194]
- IC50 [1]: 25.3 nM
- HRAS/KRAS (ratio of KD value for HRAS to KD value for KRAS) [2, 7]: B (a compound having 3 or more and less than 10 is denoted as B)
- NRAS/KRAS (ratio of KD value for NRAS to KD value for KRAS) [3, 8]: B (a compound having 3 or more and less than 10 is denoted as B)
- Kd [4, 9]: 0.068 nM
